Results: PubChem BioAssay (NCI)
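Compound exposure: 48 hours, 5 concentrations, 96-well plates. GI50 is the concentration that inhibits growth by half. Definition used: TGI = concentration required for complete inhibition of growth.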

How the values were obtained:
Test in all cases: inhibition of tumour cell growth, NCI panel, 48 h
DU-145 prostate = system: DU-145 prostate
MALME-3M melanoma = system: MALME-3M melanoma
M14 melanoma = system: M14 melanoma
MDA-MB-435 = system: MDA-MB-435
IGROV1 ovarian = system: IGROV1 ovarian
SF-268 CNS = system: SF-268 CNS
NCI-H522 lung = system: NCI-H522 lung
MDA-MB-231 breast = system: MDA-MB-231 breast
BT-549 breast = system: BT-549 breast
SR leukemia = system: SR leukemia

| SMILES | GI50 (DU-145 prostate) [µM] | TGI (DU-145 prostate) [µM] | GI50 (MALME-3M melanoma) [µM] | TGI (MALME-3M melanoma) [µM] | GI50 (M14 melanoma) [µM] | TGI (M14 melanoma) [µM] | GI50 (MDA-MB-435) [µM] | TGI (MDA-MB-435) [µM] | GI50 (IGROV1 ovarian) [µM] | TGI (IGROV1 ovarian) [µM] | GI50 (SF-268 CNS) [µM] | TGI (SF-268 CNS) [µM] | GI50 (NCI-H522 lung) [µM] | TGI (NCI-H522 lung) [µM] | GI50 (MDA-MB-231 breast) [µM] | TGI (MDA-MB-231 breast) [µM] | GI50 (BT-549 breast) [µM] | TGI (BT-549 breast) [µM] | GI50 (SR leukemia) [µM] | TGI (SR leukemia) [µM] |
| --- | --- | --- | --- | --- | --- | --- | --- | --- | --- | --- | --- | --- | --- | --- | --- | --- | --- | --- | --- | --- |
| O=C1/C(=C/c2ccccc2)CN(C(=O)C(Cl)Cl)C/C1=C\c1ccccc1 | 1.21 | 2.47 | 0.996 | 3.06 | 0.622 | 2.15 | 0.312 | 1.03 | 0.708 | 2.2 | 1.75 | 5.2 | 1.08 | 2.69 | 0.807 | 2.46 | 1.24 | 2.69 | 0.11 |  |
| BrC(Br)=C1C(=C(Br)Br)C(Br)C1Br (stereo not drawn) |  | 0.502 |  | 1.59 |  | 0.592 |  | 2.82 |  | 5.68 |  | 1.51 |  | 0.299 |  | 3.63 |  | 6.93 |  | 1.54 |
| COc1cc(Oc2c(C)c(Cl)c(OC)c(Cl)c2OC)c2c(c1Cl)COC2=O |  | > 100 |  | > 100 |  | > 100 |  | > 100 |  | > 100 |  | > 100 |  | 33.7 |  | > 100 |  | > 100 |  | 83.5 |
| CC(=O)Nc1cc2cc(N)ccc2oc1=O |  | > 100 |  | > 100 |  | > 100 |  | > 100 |  | > 100 |  | > 100 |  | > 100 |  | > 100 |  | > 100 |  | > 100 |
| COC(=O)c1ccc2c(c1)C(=O)c1c-2n(CCCCl)c(=O)c2cc([N+](=O)[O-])ccc12 | 37.2 | > 100 | > 100 | > 100 | 82.5 | > 100 | > 100 | > 100 | 34.9 | > 100 | 42.2 | > 100 | 51 | > 100 | > 100 | > 100 | 44.4 | > 100 | 4.94 | > 100 |
| C=C(CN1CCN(c2ccc(C(F)(F)F)cc2)CC1)c1ccc(C(=O)Nc2ccccc2N)cc1 | 21 | > 100 | 19.3 | > 100 | > 90.5 | > 100 | > 25.2 | > 100 | 18.2 | > 100 | 6.78 | > 100 | 1.85 | > 100 | 3.6 | > 71.3 | 6.93 | 97.8 | 1.1 | > 100 |
| CC/C=C\C[C@H](F)C/C=C1/C(=O)C=C[C@@H]1C/C=C\CCCC(=O)OC | 3.17 | 9.81 | 2.03 | 8.7 | 1.65 | 5.8 | 1.25 | 3.37 | 1.94 | 8.58 | 1.86 | 7.23 | 1.32 | 5.08 | 1.91 | 6.7 | 1.5 | 4.15 | 1.06 | 3.42 |
| C=C1CC2(CC(c3ccccc3Cl)OC(c3ccccc3Cl)C2)OC1=O (stereo not drawn) |  | 14.4 |  | 8.19 |  | 3.39 |  | 3.51 |  | 4.62 |  | 5.62 |  | 3.3 |  | 3.45 |  | 4.59 |  | 14.2 |
| Cc1c(-c2ccc(C3CCCCC3)cc2)nc2ccc(F)cc2c1C(=O)O | 0.802 | > 100 | > 51.4 | > 100 | 0.788 | > 100 | 0.322 | > 100 | 1 | > 100 | 0.405 | > 100 | 0.766 | > 100 | 8.9 | > 100 | 9.89 | > 100 | 0.0629 | > 100 |
| CCCc1n(Cc2ccc3ccccc3c2)cc[n+]1Cc1ccc2ccccc2c1 | 1.49 | 7.25 | 0.876 | 2.58 | 1.1 | 2.53 | 0.564 | 2.06 | 0.779 | 2.42 | 1.08 | 2.52 | 0.378 | 1.69 | 1.06 | 2.54 | 0.772 | 2.16 | 0.597 | 2.62 |
| CN(C)CCCN(CCC1CCCCC1)CCC1CCCCC1 | 5.56 | 17.7 | 1.83 | 3.77 | 1.87 | 3.66 | 1.35 | 3.03 | 1.91 | 4.65 | 5.5 | 18 | 3.1 | 8.3 | 1.62 | 3.97 | 7.74 | 22.2 | 0.731 | 3.25 |
| CO[C@H]1C=CO[C@@]2(C)Oc3c(C)c(O)c4c(O)c(c(CN5CCN(C)CC5)c(O)c4c3C2=O)NC(=O)/C(C)=C\C=C[C@H](C)[C@H](O)C(C)[C@@H](O)C(C)[C@H](OC(C)=O)[C@@H]1C (stereo partly drawn) |  | > 100 |  | > 100 |  | > 75 |  | > 60.8 |  | > 100 |  | > 100 |  | 46.5 |  | > 100 |  | > 100 |  | 35.5 |
| O=C(/C=C/c1ccc(Cl)cc1)c1ccccc(=O)c1O |  | 19.1 |  | 5.22 |  | 20.1 |  | 20.8 |  | 15.8 |  | 36.2 |  | 50.9 |  | 23.6 |  | 13.5 |  | > 100 |
| O=c1oc2ccc(I)cc2c(=O)n1-c1ccc(F)cc1F | 3.57 | 58.5 | 1.94 | 5.89 | 1.71 | 5.88 | 2.87 | 9.18 | 2.07 | 33.2 | 2.86 | 27.1 | 2.65 | 10.2 | 1.89 | 6.01 | 1.91 | 4.98 | 3.02 | > 100 |
| COC1C(O)CC(OC2CC(OC3CC(O[C@@H]4C(=O)c5c(cc6cc(OC7CC(OC8CC(O)C(O)C(C)O8)C(O)C(C)O7)c(C)c(O)c6c5O)CC4[C@H](OC)C(=O)O)OC(C)C3O)OC(C)C2O)OC1C (stereo partly drawn) | 1.96 | > 33.3 | 2.37 | 28.6 | 3.14 | > 33.3 | 2.56 | 24.7 | 1.76 | > 33.3 | 2.64 | > 33.3 | 1.7 | > 33.3 | 4.43 | > 33.3 | 1.8 | 31.8 | 0.922 | > 33.3 |
| COc1ccc(C=Nc2c(C(=O)Nc3cccc(Cl)c3C)sc3nc(C)c(C(=O)/C=C/c4ccc(OC)cc4)cc23)cc1 | 0.638 | 14.6 | 0.599 | > 50 | 0.201 | 1.57 | 0.103 | 0.227 | 1.32 | > 50 | 1.6 | > 50 | 0.157 |  | 0.383 | 2.26 | 0.787 | > 38.5 | 0.421 | > 50 |
| O=C1C(=C(C(F)(F)Cl)C(F)(F)Cl)C2CCC1C2 (stereo not drawn) |  | > 10 |  | 3.2 |  | 2.38 |  | 3.81 |  | 3.62 |  | > 6.62 |  | 0.56 |  | 3.07 |  | 4 |  | > 3.34 |
| CC(=O)OC1CCC2(C)C(CCC3C2CC(=O)C2(C)C3CC(N3CC3)C2C(C)=O)C1 (stereo not drawn) |  | > 100 |  | 36.5 |  | 51.7 |  | 51.5 |  | 56.4 |  | 27.1 |  | 29.8 |  | 38.1 |  | 40.1 |  | 64.7 |
